Patent US5691373A, “Nonpeptide endothelin antagonists I” (Warner-Lambert Company, priority 1995, dated 1997)

How the values were obtained:
ETA [1] = molecular target: T1, ETA (Oryctolagus cuniculus, UniProt A5A8K3); assay: VERA-A: antagonism of ET-1 stimulated vasoconstriction in the rabbit femoral artery (ETA); format: cell-based; conditions: ET-1, rabbit femoral artery; read-out: VERA-A pA2 (converted)
T1 sequence (A5A8K3 21-427): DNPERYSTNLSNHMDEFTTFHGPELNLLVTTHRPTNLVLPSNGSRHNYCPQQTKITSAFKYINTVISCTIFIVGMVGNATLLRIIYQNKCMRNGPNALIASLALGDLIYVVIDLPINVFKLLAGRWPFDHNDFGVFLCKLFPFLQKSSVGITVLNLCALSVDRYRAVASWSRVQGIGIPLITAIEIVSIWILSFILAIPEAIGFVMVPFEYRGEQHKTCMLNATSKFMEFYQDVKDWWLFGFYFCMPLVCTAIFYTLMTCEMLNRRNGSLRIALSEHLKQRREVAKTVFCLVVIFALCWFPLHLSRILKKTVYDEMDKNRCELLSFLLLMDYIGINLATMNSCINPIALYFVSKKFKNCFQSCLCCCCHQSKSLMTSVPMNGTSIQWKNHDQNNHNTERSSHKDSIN
Procedure: Male New Zealand rabbits were killed by cervical dislocation and exsanguination. Femoral and pulmonary arteries were isolated, cleaned of connective tissue, and cut into 4-mm rings. The endothelium was denuded by placing the rings over hypodermic tubing (32 gauge for femoral rings and 28 gauge for pulmonary rings, Small Parts, Inc, Miami, Fla.) and gently rolling them. […] Resting tension was adjusted to 3.0 g for femoral and 4.0 g pulmonary arteries; the rings were left for 90 minutes to equilibrate.

ETB = molecular target: T2, ETB (Rattus norvegicus, UniProt P21451)
T2 sequence (P21451 27-442): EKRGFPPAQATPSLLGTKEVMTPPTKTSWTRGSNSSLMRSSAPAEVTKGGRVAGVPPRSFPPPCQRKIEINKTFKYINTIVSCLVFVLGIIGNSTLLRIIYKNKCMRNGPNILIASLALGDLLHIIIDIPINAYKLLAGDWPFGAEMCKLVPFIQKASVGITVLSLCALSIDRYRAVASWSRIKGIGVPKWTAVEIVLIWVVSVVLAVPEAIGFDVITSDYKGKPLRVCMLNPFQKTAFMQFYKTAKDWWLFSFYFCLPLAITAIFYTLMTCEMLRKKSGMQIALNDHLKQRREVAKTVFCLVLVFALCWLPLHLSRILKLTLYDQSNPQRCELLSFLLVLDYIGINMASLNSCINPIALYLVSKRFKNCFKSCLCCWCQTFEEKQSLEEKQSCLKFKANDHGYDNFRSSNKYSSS
Procedure: The tissue is made up of 20 mM tris(hydroxymethyl)aminomethane hydrochloride (Trizma) buffer, 2 mM ethylenediaminetetra acetate, 100 μM phenylmethylsulfonyl fluoride.
First, thaw one aliquot of frozen rat cerebellar membranes (2 mg protein in 0.5 mL). Next, add 0.5 mL membrane aliquot to 4.5 mL cold tissue buffer, polytron at 7,500 revolutions per minute for 10 seconds. Finally, dilute tissue suspension 1/100 (0.1 mL suspension+9.9 mL tissue buffer), polytron again, and place ice.
Mix in 150 μL of tissue to each tube, vortex briefly, then tap to force all liquids to bottom (total assay volume=250 μL). Then place the tubes in a 37° C. water bath for 2 hours.
Add 2.5 mL cold wash buffer (50 mM Trizma buffer) to each tube, filter, and then wash tube with additional 2.5 mL wash buffer and add to filter. Finally, wash filters with an additional 2.5 mL of cold wash buffer.
Count filters for radioactivity in gamma counter.

ETA [2] = molecular target: T1, ETA; conditions: ERBA-A IC50, [125I]-ET-1, rabbit renal artery vascular smooth muscle cells
human ETB receptor = molecular target: T3, human ETB receptor (Homo sapiens, UniProt P24530); assay: ERBA-B: [125I]-ET-1 binding, recombinant human ETB receptor expressed in CHO-K1 cells; conditions: human cloned ETB receptor, read-out: ERBA-B IC50, human cloned receptor data
T3 construct: expressed in transfected cells; host or cells: CHO-K1 cells, pRc-CMW (so in the source) expression vector, electroporation; membranes used
T3 sequence (P24530 27-442): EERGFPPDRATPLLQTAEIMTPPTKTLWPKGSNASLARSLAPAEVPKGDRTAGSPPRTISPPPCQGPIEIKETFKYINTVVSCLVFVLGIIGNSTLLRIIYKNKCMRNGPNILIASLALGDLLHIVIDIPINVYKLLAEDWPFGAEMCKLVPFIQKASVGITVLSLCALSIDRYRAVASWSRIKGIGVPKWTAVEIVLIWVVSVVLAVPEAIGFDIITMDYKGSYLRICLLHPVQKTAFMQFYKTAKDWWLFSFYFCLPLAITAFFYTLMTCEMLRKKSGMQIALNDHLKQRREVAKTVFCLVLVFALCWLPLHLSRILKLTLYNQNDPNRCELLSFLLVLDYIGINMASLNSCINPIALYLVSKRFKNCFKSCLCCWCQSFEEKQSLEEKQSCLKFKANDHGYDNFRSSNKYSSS

Compound	Kb (ETA [1])	IC50 (ETB)	IC50 (ETA [2])	IC50 (human ETB receptor)
COc1ccc(C(=O)/C(Cc2ccccc2OC)=C(\C(=O)O)c2ccc3c(c2)OCO3)cc1	251 nM			
COc1ccc(C2(O)OC(=O)C(c3ccc4c(c3)OCO4)=C2Cc2ccc(Cl)c(Cl)c2)cc1 (stereo not drawn) [Example 78, 3-Benzo[1,3]dioxol-5-yl-4-(3,4-dichlorobenzyl)-5-hydroxy-5-(4-methoxyphenyl)-5H-furan-2-one]		890 nM	240 nM	
COc1ccc(C2(O)OC(=O)C(c3ccc4c(c3)OCO4)=C2Cc2ccc(C(C)(C)C)cc2)cc1 (stereo not drawn) [Example 79, 3-Benzo[1,3]dioxol-5-yl-4-(4-tert-butylbenzyl)-5-hydroxy-5-(4-methoxyphenyl)-5H-furan-2-one]		520 nM	84 nM	
COc1ccc(C2(O)OC(=O)C(c3ccc4c(c3)OCO4)=C2Cc2ccc(NC(C)=O)cc2)cc1 (stereo not drawn) [Example 80, N-{4-[4-Benzo[1,3]dioxol-5-yl-2-hydroxy-2-(4-methoxyphenyl)-5-oxo-2,5-dihydro-furan-3-ylmethyl]-phenyl}-acetamide]	63.1 nM		1.4 nM	880 nM
COc1ccc(C2(O)OC(=O)C(c3ccc4c(c3)OCO4)=C2Cc2ccc(Br)cc2)cc1 (stereo not drawn) [Example 83, 3-Benzo[1,3]dioxol-5-yl-4-(4-bromobenzyl)-5-hydroxy-5-(4-methoxyphenyl)-5H-furan-2-one]		500 nM	71 nM	
COc1ccc(C2(O)OC(=O)C(c3ccc4c(c3)OCO4)=C2Cc2ccc(OC(C)C)cc2)cc1 (stereo not drawn) [Example 84, 3-Benzo[1,3]dioxol-5-yl-5-hydroxy-4-(isopropoxybenzyl)-5-(4-methoxyphenyl)-5H-furan-2-one]	158 nM		3.3 nM	1400 nM
COc1ccc(C2(O)OC(=O)C(c3ccc4c(c3)OCO4)=C2Cc2ccc(OC)c(Cl)c2)cc1 (stereo not drawn) [Example 92, 3-Benzo[1,3]dioxol-5-yl-4-(3-chloro-4-methoxybenzyl)-5-hydroxy-5-(4-methoxyphenyl)-5H-furan-2-one]	251 nM		4 nM	1400 nM
CCCCOc1ccc(CC2=C(c3ccc4c(c3)OCO4)C(=O)OC2(O)c2ccc(OC)cc2)cc1 (stereo not drawn) [Example 93, 3-Benzo[1,3]dioxol-5-yl-4-(4-butoxybenzyl)-5-hydroxy-5-(4-methoxyphenyl)-5H -furan-2-one]	1000 nM		5.2 nM	220 nM
CC(C)c1ccc(CC2=C(c3ccc(Cl)c(Cl)c3)C(=O)OC2(O)c2ccc(Cl)cc2)cc1 (stereo not drawn) [Example 118, 5-(4-Chlorophenyl)-3-(3,4-dichlorophenyl)-5-hydroxy-4-(4-isopropylbenzyl)-5 H-furan-2-one]		13000 nM	540 nM	
CN(C)c1ccc(CC2=C(c3ccc(Cl)c(Cl)c3)C(=O)OC2(O)c2ccc(Cl)cc2)cc1 (stereo not drawn) [Example 119, 5-(4-Chlorophenyl)-3-(3,4-dichlorophenyl)-4-(4-dimethylaminobenzyl)-5-hydroxy-5H-furan-2-one]		4100 nM	5800 nM	
COc1ccc(C2(O)OC(=O)C(c3cc(OC)cc(OC)c3)=C2Cc2ccccc2)cc1 (stereo not drawn) [Example 125, 4-Benzyl-3-(3,5-dimethoxyphenyl)-5-hydroxy-5-(4-methoxyphenyl)-5H-furan-2-one]		200 nM	29 nM	
COc1ccc(CC2=C(c3cc(OC)cc(OC)c3)C(=O)OC2(O)c2ccc(OC)cc2)cc1 (stereo not drawn) [Example 131, 3-(3,5-Dimethoxyphenyl)-5-hydroxy-4-(4-methoxybenzyl)-5-(4-methoxyphenyl)-5H-furan-2-one]	501 nM		15 nM	1350 nM
COc1ccc(C2(O)OC(=O)C(c3cc(OC)cc(OC)c3)=C2Cc2cccc(C=O)c2)cc1 (stereo not drawn) [Example 134, 3-[4-(3,5-Dimethoxyphenyl)-2-hydroxy-2-(4-methoxyphenyl)-5-oxo-2,5-dihydrof uran-3-ylmethyl]benzaldehyde]		1200 nM	24 nM	
COc1ccc(C2(O)OC(=O)C(c3cccc(OC)c3)=C2Cc2ccccc2)cc1 (stereo not drawn) [Example 153, 4-Benzyl-5-hydroxy-5-(4-methoxyphenyl)-3-(3-methoxyphenyl)-5H-furan-2-one]		2000 nM	360 nM	
CCCOc1cccc(CC2=C(c3cccc(OC)c3)C(=O)OC2(O)c2ccc(OC)cc2)c1 (stereo not drawn) [Example 154, 5-Hydroxy-5-(4-methoxyphenyl)-3-(3-methoxyphenyl)-4-(3-propoxybenzyl)-5H-fu ran-2-one]		2100 nM	100 nM	
O=C1OC(O)(c2c(F)cccc2F)C(Cc2ccccc2)=C1c1ccc2c(c1)OCO2 (stereo not drawn) [Example 158, 3-Benzo[1,3]dioxol-5-yl-4-benzyl-5-(2,6-difluorophenyl)-5-hydroxy-5H-furan-2-one]		21000 nM	2300 nM	
C=CCOc1cc(CC2=C(c3ccc4c(c3)OCO4)C(=O)OC2(O)c2ccc(OC)cc2)ccc1OC (stereo not drawn) [Example 163, 4-(3-Allyloxy-4-methoxybenzyl)-3-benzo[1,3]dioxol-5-yl-5-hydroxy-5-(4-methoxyphenyl)-5H-furan-2-one]	126 nM		20 nM	880 nM
COc1ccc(C2(O)OC(=O)C(c3cn(C)c4ccccc34)=C2Cc2ccccc2)cc1 (stereo not drawn) [Example 170]		900 nM	1300 nM	
Cc1ccccc1C1(O)OC(=O)C(c2ccc3c(c2)OCO3)=C1Cc1ccccc1 (stereo not drawn) [Example 216, 3-Benzo[1,3]dioxol-5-yl-4-benzyl-5-hydroxy-5-o-tolyl-5H-furan-2-one]		8000 nM	290 nM	
COc1cccc(C2(O)OC(=O)C(c3ccc4c(c3)OCO4)=C2Cc2ccccc2)c1 (stereo not drawn) [Example 220, 3-Benzo[1,3]dioixol-5-yl-4-benzyl-5-hydroxy-5-(3-methoxyphenyl)-5H-furan-2-one]		1500 nM	300 nM	
COc1ccc(C2(O)OC(=O)C(c3ccc4c(c3)OCO4)=C2Cc2ccc(SC)cc2)cc1 (stereo not drawn) [Example 236, 3-Benzo[1,3]dioxol-5-yl-5-hydroxy-5-(4-methoxyphenyl)-4-(4-methylsulfanylbenzyl)-5H-furan-2-one]	316 nM		230 nM	
COc1ccc(C2(O)OC(=O)C(c3ccc4c(c3)OCO4)=C2Cc2ccc(S(C)(=O)=O)cc2)cc1 (stereo not drawn) [Example 237, 3-Benzo[1,3]dioxol-5-yl-5-hydroxy-4-(4-methanesulfonylbenzyl)-5-(4-methoxyphenyl)-5H-furan-2-one]	631 nM		11 nM	> 2500 nM
COc1ccc(C2(O)OC(=O)C(c3ccc4c(c3)OCO4)=C2Cc2ccccc2)c(OC)c1 (stereo not drawn) [Example 241, 3-Benzo[1,3]dioxol-5-yl-4-benzyl-5-(2,4-dimethoxyphenyl)-5-hydroxy-5H-furan-2-one]	631 nM		35 nM	
COc1ccc(C2(O)OC(=O)C(c3ccc4c(c3)OCO4)=C2Cc2ccc(OC)c(C)c2C)cc1 (stereo not drawn) [Example 254, 3-Benzo[1,3]dioxol-5-yl-5-hydroxy-4-(4-methoxy-2,3-dimethylbenzyl)-5-(4-methoxyphenyl)-5H-furan-2-one]	200 nM		17 nM	2900 nM
COc1ccc(C2(O)OC(=O)C(c3cc(OC)c4c(c3)OCO4)=C2Cc2ccccc2)cc1 (stereo not drawn) [Example 301, 4-Benzyl-5-hydroxy-3-(7-methoxy-benzo[1,3]dioxol-5-yl)-5(4-methoxy-phenyl)-5H-furan-2-one]	100 nM		5.6 nM	660 nM
C=CCOc1cc(OC)ccc1C1(O)OC(=O)C(c2ccc3c(c2)OCO3)=C1Cc1ccccc1 (stereo not drawn) [Example 329, 3-Benzo[1,3]dioxol-5-yl-5-hydroxy-5-(2-allyloxy-4-methoxy-phenyl)-4-benzyl-5H-furan-2one]		110 nM	110 nM	
